Experimental data as given in article PMC6560442, “Biochemical Properties of Polyphenol Oxidases from Ready-to-Eat Lentil (Lens culinaris Medik.) Sprouts and Factors Affecting Their Activities: A Search for Potent Tools Limiting Enzymatic Browning” (Foods, 2019).

Tests used:
PPO II = test system: T1, PPO II; assay: quinone formation, absorbance at […] nm, Lineweaver-Burk; format: biochemical, Lens culinaris; conditions: TRIS-HCl 50 mM pH 6.5 (standard assay); 1-30 mM substrate; partially purified enzyme
T1 construct: second isoenzyme

PPO I = test system: T2, PPO I; assay: as above; format: biochemical, Lens culinaris; conditions: TRIS-HCl 50 mM pH 6.5 (standard assay); 1-30 mM substrate; partially purified enzyme
T2 construct: first isoenzyme

SMILES	Km (PPO II)	Km (PPO I)
Cc1ccc(O)c(O)c1 [4-methylcatechol]	3400 ± 150 µM	3000 ± 140 µM
Oc1ccccc1O [Catechol]	940 ± 40 µM	1760 ± 80 µM
O=C(O)/C=C/c1ccc(O)c(O)c1 [Caffeic acid]	–	3810 ± 170 µM
O=C(O)c1cc(O)c(O)c(O)c1 [Gallic acid]	5000 ± 230 µM	2250 ± 100 µM
